The record followed here is patent US10010547B2 (CASCADIAN THERAPEUTICS, INC., priority 2014, dated 2018).

Structures can show the parent of a compound that is named as a salt. Where two headings read alike, the source gives them in different places. Bounds are passed on as bounds.

The target of assay [1] is Chk-1 kinase (Homo sapiens (Human), UniProt O14757). As to the kind of experiment: Chk-1 Kinase Inhibiting Activity (33P-ATP filter assay, CHKtide substrate). It counts as biochemical. To be noted: against Chk-1 kinase; read-out: IC50. The method, boiled down:
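Full-length N-terminal GST-tagged human Chk-1 from insect cells, 0.5 nM final, with 20 μM peptide substrate and 33P-ATP in HEPES pH 7.5 buffer with 1% DMSO. Reaction ran 120 minutes at room temperature; incorporated radioactivity captured on P81 filters and counted for IC50.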

The subject of assay [2] is MIA PaCa-2 cells. As to the kind of experiment: Gemcitabine Combination Cell Assay (Cell Titer Glo). It counts as cell-based. The note with it: for 10xLS: approximate concentration of Chk1 inhibitor that results in a 10-fold reduction in the IC50 of gemcitabine alone; for 2xLS: approximate concentration of Chk1 inhibitor that results in a two-fold reduction in the IC50 of gemcitabine alone. The method, boiled down:
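MIA PaCa-2 cells were treated 72 h with half-log dilutions of Chk1 inhibitor (top 3000 nM) and gemcitabine (top 100 nM), alone and in full matrix; viability by CellTiter-Glo luminescence. IC50s from four-parameter fit; Chk1 inhibitor concentrations giving two- and ten-fold lowering of gemcitabine IC50 were estimated.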
On the technique in general: In ATP-based viability assays light output follows the ATP content of the culture.

[3] abbreviates: Homo sapiens, Chk1 inhibitor alone, MIA PaCa-2 cells, 72 h, read-out: Chk1 IC50.
Where [4] appears, read: Homo sapiens, MIA PaCa-2, 72 h, read-out: Chk1 IC50 (nM).
Setting [5] is: Chk1 inhibitor alone, MIA PaCa-2 cells, 72 h, read-out: Chk1 IC50.

Chain of Chk-1 kinase (O14757 whole entry): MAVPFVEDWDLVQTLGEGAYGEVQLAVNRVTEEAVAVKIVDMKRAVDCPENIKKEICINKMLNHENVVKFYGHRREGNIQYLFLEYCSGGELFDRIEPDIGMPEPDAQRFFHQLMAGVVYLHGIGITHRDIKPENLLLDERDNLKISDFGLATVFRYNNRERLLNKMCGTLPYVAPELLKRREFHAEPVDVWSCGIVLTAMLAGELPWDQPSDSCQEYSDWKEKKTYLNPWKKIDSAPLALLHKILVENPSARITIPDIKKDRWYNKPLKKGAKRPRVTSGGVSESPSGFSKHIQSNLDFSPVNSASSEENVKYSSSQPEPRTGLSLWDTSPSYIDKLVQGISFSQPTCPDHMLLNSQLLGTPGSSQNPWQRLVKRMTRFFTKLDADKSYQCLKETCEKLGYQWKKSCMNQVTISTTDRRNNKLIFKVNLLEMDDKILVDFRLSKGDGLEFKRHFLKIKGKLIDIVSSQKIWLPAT

With `COc1cc(C2CCN(CCF)CC2)ccc1-c1cc(Nc2cnc(C#N)cn2)n[nH]1` [Example 106, 5-[[5-[4-[1-(2-fluoroethyl)-4-piperidyl]-2-methoxy-phenyl]-1H-pyrazol-3-yl]amino]pyrazine-2-carbonitrile], the IC50 in assay [1] was found to be 0.17 nM; in assay [2] (setting [3]), 441 nM. Moreover, the “10xLS” value in assay [2] (MIA PaCa-2 cells, 72 h) is recorded as 100 nM. In addition, in assay [2] (MIA PaCa-2 cells, 72 h), the “2xLS” value is 3 nM.
In the case of `COc1cc(NCC2CCN(C)CC2)ccc1-c1cc(Nc2cnc(C#N)cn2)n[nH]1` [Example 107, 5-[[5-[2-Methoxy-4-[(1-methyl-4-piperidyl)methylamino]phenyl]-1H-pyrazol-3-yl]amino]pyrazine-2-carbonitrile hydrochloride], in assay [1], the concentration for half-maximal inhibition (IC50) is 0.081 nM. The IC50 in assay [2] (setting [4]) was found to be 160 nM. For the same molecule, in assay [2] (MIA PaCa-2 cells, 72 h), the “10xLS” value is given as 100 nM and the “2xLS” value turned out to be 3 nM.
For `CCN1CCC(CNc2ccc(-c3cc(Nc4cnc(C#N)cn4)n[nH]3)c(OC)c2)CC1` [Example 108, 5-[[5-[4-[(1-ethyl-4-piperidyl)methylamino]-2-methoxy-phenyl]-1H-pyrazol-3-yl]amino]pyrazine-2-carbonitrile], the IC50 came to 0.043 nM in assay [1] and 77 nM in assay [2] (setting [3]). Moreover, the “10xLS” value in assay [2] (MIA PaCa-2 cells, 72 h) is on record as 30 nM. Besides, the “2xLS” value in assay [2] (MIA PaCa-2 cells, 72 h) is given as under 3 nM.
For the molecule `COc1cc(NCC2CCN(C(C)C)CC2)ccc1-c1cc(Nc2cnc(C#N)cn2)n[nH]1` [Example 109, 5-[[5-[4-[(1-isopropyl-4-piperidyl)methylamino]-2-methoxy-phenyl]-1H-pyrazol-3-yl]amino]pyrazine-2-carbonitrile], the IC50 in assay [1] was determined as 0.087 nM. In addition, the IC50 in assay [2] (setting [3]) came to 82 nM. Besides, in assay [2] (MIA PaCa-2 cells, 72 h), the “10xLS” value was under 30 nM and the “2xLS” value is reported as under 3 nM.
On to `COc1cc(NC2CCN(C)CC2)ccc1-c1cc(Nc2cnc(C#N)cn2)n[nH]1` [Example 110, 5-[[5-[2-methoxy-4-[(1-methyl-4-piperidyl)amino]phenyl]-1H-pyrazol-3-yl]amino]pyrazine-2-carbonitrile], for which the IC50 in assay [1] turned out to be 0.0069 nM. Moreover, the IC50 in assay [2] (setting [3]) came to 192 nM. In addition, in assay [2] (MIA PaCa-2 cells, 72 h), the “10xLS” value was 100 nM and the “2xLS” value worked out at 3 nM.
In the same order, the values of `CCN1CCC(Nc2ccc(-c3cc(Nc4cnc(C#N)cn4)n[nH]3)c(OC)c2)CC1` [Example 111, 5-[[5-[4-[(1-ethyl-4-piperidyl)amino]-2-methoxy-phenyl]-1H-pyrazol-3-yl]amino]pyrazine-2-carbonitrile] are 0.0052 nM, 184 nM, 100 nM and under 3 nM.
Take `COc1cc(NC2CCN(C(C)C)CC2)ccc1-c1cc(Nc2cnc(C#N)cn2)n[nH]1` [Example 112, 5-[[5-[4-[(1-isopropyl-4-piperidyl)amino]-2-methoxy-phenyl]-1H-pyrazol-3-yl]amino]pyrazine-2-carbonitrile]: the IC50 in assay [1] was determined as 0.0042 nM. For the same molecule, the IC50 in assay [2] (setting [3]) was found to be 253 nM. Besides, in assay [2] (MIA PaCa-2 cells, 72 h), the “10xLS” value is listed as 100 nM and the “2xLS” value is recorded as under 3 nM.
On to `COc1cc(COC2CCN(C)CC2)ccc1-c1cc(Nc2cnc(C#N)cn2)n[nH]1` [Example 113, 5-[[5-[2-methoxy-4-[(1-methyl-4-piperidyl)oxymethyl]phenyl]-1H-pyrazol-3-yl]amino]pyrazine-2-carbonitrile], for which the results for the IC50 in assay [1] and in assay [2] (setting [5]) were 0.27 nM and 531 nM, respectively. The “10xLS” value in assay [2] (MIA PaCa-2 cells, 72 h) stood at 300 nM. The “2xLS” value in assay [2] (MIA PaCa-2 cells, 72 h) was determined as 3 nM.
Consider `CCN1CCC(OCc2ccc(-c3cc(Nc4cnc(C#N)cn4)n[nH]3)c(OC)c2)CC1` [Example 114, 5-[[5-[4-[(1-ethyl-4-piperidyl)oxymethyl]-2-methoxy-phenyl]-1H-pyrazol-3-yl]amino]pyrazine-2-carbonitrile], for which, in assay [1], the IC50 was found to be 0.2 nM. Further, in assay [2] (setting [5]), the IC50 was determined as 469 nM. For the same molecule, in assay [2] (MIA PaCa-2 cells, 72 h), the “10xLS” value is given as under 300 nM and the “2xLS” value was determined as 3 nM.
Turning to `COc1cc(COC2CCN(C(C)C)CC2)ccc1-c1cc(Nc2cnc(C#N)cn2)n[nH]1` [Example 115, 5-[[5-[4-[(1-isopropyl-4-piperidyl)oxymethyl]-2-methoxy-phenyl]-1H-pyrazol-3-yl]amino]pyrazine-2-carbonitrile], in assay [1], the IC50 was 0.24 nM. The IC50 in assay [2] (setting [5]) is 515 nM. In assay [2] (MIA PaCa-2 cells, 72 h), the “10xLS” value was under 300 nM and the “2xLS” value is recorded as 3 nM.
Take `COc1cc(N2CCNCC2)cc(F)c1-c1cc(Nc2cnc(C#N)cn2)n[nH]1` [Example 116, 5-[[5-(2-fluoro-6-methoxy-4-piperazin-1-yl-phenyl)-1H-pyrazol-3-yl]amino]pyrazine-2-carbonitrile]: the results for the IC50 in assay [1] and in assay [2] (setting [3]) were 0.077 nM and 209 nM, respectively. Besides, the “10xLS” value in assay [2] (MIA PaCa-2 cells, 72 h) is given as 100 nM. For the same molecule, the “2xLS” value in assay [2] (MIA PaCa-2 cells, 72 h) was found to be 3 nM.
For the molecule `COc1cc([C@@H]2CN(C)CCO2)ccc1-c1cc(Nc2cnc(C#N)cn2)n[nH]1` [Example 117, 5-[[5-[2-Methoxy-4-[(2R)-4-methylmorpholin-2-yl]phenyl]-1H-pyrazol-3-yl]amino]pyrazine-2-carbonitrile hydrochloride], the IC50 in assay [1] worked out at 0.027 nM. For the same molecule, in assay [2] (setting [4]), the IC50 is 1890 nM. In addition, in assay [2] (MIA PaCa-2 cells, 72 h), the “10xLS” value turned out to be 1000 nM and the “2xLS” value came to 10 nM.
For the molecule `CCN1CCO[C@H](c2ccc(-c3cc(Nc4cnc(C#N)cn4)n[nH]3)c(OC)c2)C1` [Example 118, 5-[[5-[2-methoxy-4-[(2R)-4-ethylmorpholin-2-yl]phenyl]-1H-pyrazol-3-yl]amino]pyrazine-2-carbonitrile], the IC50 in assay [1] came out at 0.022 nM. For the same molecule, the IC50 in assay [2] (setting [3]) amounted to 1200 nM. In assay [2] (MIA PaCa-2 cells, 72 h), the “10xLS” value came to 300 nM and the “2xLS” value was 3 nM.
As to `COc1cc(N2CCNCC2)cc(OC)c1-c1cc(Nc2cnc(C#N)cn2)n[nH]1` [Example 121, 5-[[5-(2,6-dimethoxy-4-piperazin-1-yl-phenyl)-1H-pyrazol-3-yl]amino]pyrazine-2-carbonitrile], the IC50 in assay [1] turned out to be 0.15 nM. Moreover, the IC50 in assay [2] (setting [3]) was determined as 177 nM. In assay [2] (MIA PaCa-2 cells, 72 h), the “10xLS” value is under 100 nM and the “2xLS” value came to 3 nM.
`COc1cc(N2CCN(C)CC2)cc(OC)c1-c1cc(Nc2cnc(C#N)cn2)n[nH]1` [Example 122, 5-[[5-[2,6-dimethoxy-4-(4-methylpiperazin-1-yl)phenyl]-1H-pyrazol-3-yl]amino]pyrazine-2-carbonitrile]: the IC50 in assay [1] amounted to 0.14 nM. For the same molecule, the IC50 in assay [2] (setting [3]) stood at 136 nM. Moreover, in assay [2] (MIA PaCa-2 cells, 72 h), the “10xLS” value was under 100 nM and the “2xLS” value is 3 nM.
Take `COc1cc(CN2CC[C@@H](F)C2)ccc1-c1cc(Nc2cnc(C#N)cn2)n[nH]1` [Example 123, 5-[[5-[4-[[(3R)-3-fluoropyrrolidin-1-yl]methyl]-2-methoxy-phenyl]-1H-pyrazol-3-yl]amino]pyrazine-2-carbonitrile hydrochloride]: the IC50 in assay [1] is 0.16 nM. The IC50 in assay [2] (setting [4]) amounted to 440 nM. Moreover, in assay [2] (MIA PaCa-2 cells, 72 h), the “10xLS” value is under 300 nM and the “2xLS” value worked out at 3 nM.
In the case of `CCN1CCC[C@@H]1COc1ccc(-c2cc(Nc3cnc(C#N)cn3)n[nH]2)c(OC)c1` [Example 126, 5-[[5-[4-[[(2R)-1-ethylpyrrolidin-2-yl]methoxy]-2-methoxy-phenyl]-1H-pyrazol-3-yl]amino]pyrazine-2-carbonitrile], the IC50 in assay [1] was 0.056 nM. Further, the IC50 in assay [2] (setting [3]) was found to be 210 nM. In addition, in assay [2] (MIA PaCa-2 cells, 72 h), the “10xLS” value is recorded as under 100 nM and the “2xLS” value worked out at 3 nM.
In the same order, the values of `COc1cc(OC[C@H]2CCCN2C(C)C)ccc1-c1cc(Nc2cnc(C#N)cn2)n[nH]1` [Example 127, 5-[[5-[4-[[(2R)-1-isopropylpyrrolidin-2-yl]methoxy]-2-methoxy-phenyl]-1H-pyrazol-3-yl]amino]pyrazine-2-carbonitrile] are 0.044 nM, 169 nM, under 100 nM and under 3 nM.
For the molecule `CCN1CCC[C@H]1COc1ccc(-c2cc(Nc3cnc(C#N)cn3)n[nH]2)c(OC)c1` [Example 128, 5-[[5-[4-[[(2S)-1-ethylpyrrolidin-2-yl]methoxy]-2-methoxy-phenyl]-1H-pyrazol-3-yl]amino]pyrazine-2-carbonitrile], the IC50 in assay [1] came out at 0.023 nM. The concentration for half-maximal inhibition (IC50) in assay [2] (setting [3]) was found to be 158 nM. Moreover, in assay [2] (MIA PaCa-2 cells, 72 h), the “10xLS” value was under 100 nM and the “2xLS” value is under 3 nM.
Turning to `COc1cc(OC[C@@H]2CCCN2C(C)C)ccc1-c1cc(Nc2cnc(C#N)cn2)n[nH]1` [Example 129, 5-[[5-[4-[[(2S)— 1-isopropylpyrrolidin-2-yl]methoxy]-2-methoxy-phenyl]-1H-pyrazol-3-yl]amino]pyrazine-2-carbonitrile], the IC50 in assay [1] is 0.046 nM. The IC50 in assay [2] (setting [3]) amounted to 278 nM. Further, in assay [2] (MIA PaCa-2 cells, 72 h), the “10xLS” value was under 100 nM and the “2xLS” value is under 3 nM.
`COc1cc(CNCC2CC2)ccc1-c1cc(Nc2cnc(C#N)cn2)n[nH]1` [Example 130, 5-[[5-[4-[(cyclopropylmethylamino)methyl]-2-methoxy-phenyl]-1H-pyrazol-3-yl]amino]pyrazine-2-carbonitrile]: the IC50 in assay [1] amounted to 0.025 nM. Moreover, the IC50 in assay [2] (setting [3]) was 142 nM. In addition, in assay [2] (MIA PaCa-2 cells, 72 h), the “10xLS” value is under 100 nM and the “2xLS” value was 3 nM.

A word on the IC50: it is the concentration that inhibits the measured activity by half.
